Measured values taken from US20240252488A1 (KOREA RESEARCH INSTITUTE OF CHEMICAL TECHNOLOGY, priority 2020, published 2024).

Legend:
MLKL [1] = target: T1, MLKL (Homo sapiens, UniProt Q8NB16); test: Measurement of binding affinity with MLKL receptor (competitive binding assay, Kd); set-up: made in house; host or cells: HEK 293 cell line (T7 phage in E. coli BL21-derived host is also described)
T1 sequence (Q8NB16 1-471): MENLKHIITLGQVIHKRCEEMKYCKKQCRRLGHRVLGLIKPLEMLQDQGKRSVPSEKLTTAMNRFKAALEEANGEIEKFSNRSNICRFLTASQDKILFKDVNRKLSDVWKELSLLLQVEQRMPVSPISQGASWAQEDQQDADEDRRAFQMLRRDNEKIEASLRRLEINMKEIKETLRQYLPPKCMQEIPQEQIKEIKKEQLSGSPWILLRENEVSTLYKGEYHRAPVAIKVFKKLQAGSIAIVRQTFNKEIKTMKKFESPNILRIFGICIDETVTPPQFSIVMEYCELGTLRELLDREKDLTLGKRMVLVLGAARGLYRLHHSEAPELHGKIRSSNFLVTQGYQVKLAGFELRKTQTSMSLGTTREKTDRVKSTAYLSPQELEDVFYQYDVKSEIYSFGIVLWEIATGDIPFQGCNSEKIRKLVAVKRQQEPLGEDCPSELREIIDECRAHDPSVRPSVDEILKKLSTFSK
Method in brief: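 MLKL was produced in HEK 293 cells and tagged with DNA for detection. Liganded beads were blocked with excess biotin and washed to cut non-specific binding, then compounds (111× DMSO stocks, 0.9% DMSO in assay) competed for binding. Eluate kinase was measured by qPCR for Kd.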

MLKL [2] = target: T1, MLKL; test: MLKL degradation assay in HepG2 cell line (western blot); assay type: cell-based; set-up: endogenous in cells; host or cells: HepG2 or HaCaT; details: cell line not given; for Degradation assay (Degradation %) 1 μM: compound 1 μM; for Degradation assay (Degradation %) 10 μM: compound 10 μM
Method in brief: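 After treating HepG2 with test compounds (final 1 μM or 10 μM) for 20-24 h, we lysed cells, equalized protein by BCA and probed MLKL by overnight primary antibody at 4 °C followed by chemiluminescent detection.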

FADD−/− Jurkat cells = test: Necroptosis inhibition assay, TNF-α-induced necroptosis (CellTiter-Glo 2.0); assay type: cell-based, human; details: TNF-α 15 ng/mL; for Necroptosis inhibition assay (Rescue %) 1 μM: compound 1 μM; for Necroptosis inhibition assay (Rescue %) 10 μM: compound 10 μM
Method in brief: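 Necroptosis was triggered by TNF-α at 15 ng/mL final following 30 minutes of compound exposure (0.1, 1 or 10 μM final). Incubation ran 20 to 24 hours at 37° C under 5% CO2; cell ATP was then quantified by luminescence.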

Kd (MLKL [1])	Degradation assay (Degradation %) 1 μM (MLKL [2])	Degradation assay (Degradation %) 10 μM (MLKL [2])	SMILES	Necroptosis inhibition assay (Rescue %) 1 μM (FADD−/− Jurkat cells)	Necroptosis inhibition assay (Rescue %) 10 μM (FADD−/− Jurkat cells)	Necroptosis inhibition assay (Rescue %) 1 μM (FADD−/− Jurkat cells; FADD−/− Jurkat cells)	Necroptosis inhibition assay (Rescue %) 10 μM (FADD−/− Jurkat cells; FADD−/− Jurkat cells)
5 nM	38.42%	15.86%	Nc1ncc(-c2cnn(C3CCN(C(=O)C4CCN(c5cccc6c5C(=O)N(C5CCC(=O)NC5=O)C6=O)CC4)CC3)c2)nc1C(=O)OC(C(=O)Nc1ccc(F)cc1)c1ccccc1 (stereo not drawn) [TDH-279, 2-((4-fluorophenyl)amino)-2-oxo-1-phenylethyl 3-amino-6-(1-(1-(1-(2-(2,6-dioxopiperidin-3-yl)-1,3-dioxoisoindolin-4-yl)piperidine-4-carbonyl)piperidin-4-yl)-1H-pyrazol-4-yl)pyrazine-2-carboxylate]	24.78%	44.14%	–	–
7.1 nM	89.40%	86.43%	Nc1ncc(-c2cnn(C3CCN(CC4CCN(c5cc6c(cc5F)C(=O)N(C5CCC(=O)NC5=O)C6=O)CC4)CC3)c2)nc1C(=O)O[C@@H](C(=O)Nc1ccc(F)cc1)c1ccccc1 (stereo partly drawn) [TDH-519, (R)-2-((4-fluorophenyl)amino)-2-oxo-1-phenylethyl 3-amino-6-(1-(1-((1-(2-(2,6-dioxopiperidin-3-yl)-6-fluoro-1,3-dioxoisoindolin-5-yl)piperidin-4-yl)methyl)piperidin-4-yl)-1H-pyrazol-4-yl)pyrazine-2-carboxylate]	–	–	4.80%	17.07%
3.9 nM	76.56%	84.2%	Nc1ncc(-c2cnn(C3CCN(CCOC4CCN(C(=O)COc5ccc6c(c5)C(=O)N(C5CCC(=O)NC5=O)C6=O)CC4)CC3)c2)nc1C(=O)OC(C(=O)Nc1ccc(F)cc1)c1ccccc1 (stereo not drawn) [TDH-252, 2-((4-fluorophenyl)amino)-2-oxo-1-phenylethyl 3-amino-6-(1-(1-(2-((1-(2-((2-(2,6-dioxopiperidin-3-yl)-1,3-dioxoisoindolin-5-yl)oxy)acetyl)piperidin-4-yl)oxy)ethyl)piperidin-4-yl)-1H-pyrazol-4-yl)pyrazine-2-carboxylate]	124.11%	73.38%	–	–
5.4 nM	35.81%	28.42%	Nc1ncc(-c2cnn(C3CCN(CCOC4CCN(C(=O)CNc5cccc6c5C(=O)N(C5CCC(=O)NC5=O)C6=O)CC4)CC3)c2)nc1C(=O)OC(C(=O)Nc1ccc(F)cc1)c1ccccc1 (stereo not drawn) [TDH-249, 2-((4-fluorophenyl)amino)-2-oxo-1-phenylethyl 3-amino-6-(1-(1-(2-((1-((2-(2,6-dioxopiperidin-3-yl)-1,3-dioxoisoindolin-4-yl)glycyl)piperidin-4-yl)oxy)ethyl)piperidin-4-yl)-1H-pyrazol-4-yl)pyrazine-2-carboxylate]	45.5%	44.81%	–	–
13 nM	–	4.57%	Nc1ncc(-c2cnn(C3CCN(C(=O)COCCOCCNC(=O)CNc4cccc5c4C(=O)N(C4CCC(=O)NC4=O)C5=O)CC3)c2)nc1C(=O)O[C@@H](C(=O)Nc1ccc(F)cc1)c1ccccc1 (stereo partly drawn) [TDH-190, (R)-2-((4-fluorophenyl)amino)-2-oxo-1-phenylethyl 3-amino-6-(1-(1-(2-(2-(2-(2-((2-(2,6-dioxopiperidin-3-yl)-1,3-dioxoisoindolin-4-yl)amino)acetamido)ethoxy)ethoxy)acetyl)piperidin-4-yl)-1H-pyrazol-4-yl)pyrazine-2-carboxylate]	39.55%	43.59%	–	–
8 nM	36.29%	25.24%	Nc1ncc(-c2cn(C3CCN(CC4CCN(c5cccc6c5C(=O)N(C5CCC(=O)NC5=O)C6=O)CC4)CC3)nn2)nc1C(=O)OC(C(=O)Nc1ccc(F)cc1)c1ccccc1 (stereo not drawn) [TDH-225, 2-((4-fluorophenyl)amino)-2-oxo-1-phenylethyl 3-amino-6-(1-(1-((1-(2-(2,6-dioxopiperidin-3-yl)-1,3-dioxoisoindolin-4-yl)piperidin-4-yl)methyl)piperidin-4-yl)-1H-1,2,3-triazol-4-yl)pyrazine-2-carboxylate]	55.04%	49.01%	–	–
41 nM	35.59%	34.35%	Nc1ncc(-c2ccc(N3CCN(CC4CCN(C(=O)COc5cccc6c5C(=O)N(C5CCC(=O)NC5=O)C6=O)CC4)CC3)nc2)nc1C(=O)OC(C(=O)Nc1ccc(F)cc1)c1ccccc1 (stereo not drawn) [TDH-255, 2-((4-fluorophenyl)amino)-2-oxo-1-phenylethyl 3-amino-6-(6-(4-((1-(2-((2-(2,6-dioxopiperidin-3-yl)-1,3-dioxoisoindolin-4-yl)oxy)acetyl)piperidin-4-yl)methyl)piperazin-1-yl)pyridin-3-yl)pyrazine-2-carboxylate]	46.68%	32.39%	–	–
1.4 nM	5.5%	52.04%	Nc1ncc(-c2cnn(C3CCN(CCOCCOCCNC(=O)CNc4ccc5c(c4)C(=O)N(C4CCC(=O)NC4=O)C5=O)CC3)c2)nc1C(=O)O[C@@H](C(=O)Nc1ccc(F)cc1)c1ccccc1 (stereo partly drawn) [TDH-103, (R)-2-((4-fluorophenyl)amino)-2-oxo-1-phenylethyl 3-amino-6-(1-(1-(2-(2-(2-(2-((2-(2,6-dioxopiperidin-3-yl)-1,3-dioxoisoindolin-5-yl)amino)acetamido)ethoxy)ethoxy)ethyl)piperidin-4-yl)-1H-pyrazol-4-yl)pyrazine-2-carboxylate]	34.93%	59.65%	–	–
4.4 nM	11.99%	49.83%	Nc1ncc(-c2cnn([C@H]3CCN(CCOCCOCCNC(=O)COc4cccc5c4C(=O)N(C4CCC(=O)NC4=O)C5=O)C3)c2)nc1C(=O)OC(C(=O)Nc1ccc(F)cc1)c1ccccc1 (stereo partly drawn) [TDH-265, 2-((4-fluorophenyl)amino)-2-oxo-1-phenylethyl 3-amino-6-(1-((3S)-1-(2-(2-(2-(2-((2-(2,6-dioxopiperidin-3-yl)-1,3-dioxoisoindolin-4-yl)oxy)acetamido)ethoxy)ethoxy)ethyl)pyrrolidin-3-yl)-1H-pyrazol-4-yl)pyrazine-2-carboxylate]	19.18%	41.68%	–	–
5.9 nM	82.06%	64.50%	Nc1ncc(-c2cnn(C3CCN(C(=O)CCC4CCN(c5cccc6c5C(=O)N(C5CCC(=O)NC5=O)C6=O)CC4)CC3)c2)nc1C(=O)O[C@@H](C(=O)Nc1ccc(F)cc1)c1ccccc1 (stereo partly drawn) [TDH-419, (R)-2-((4-fluorophenyl)amino)-2-oxo-1-phenylethyl 3-amino-6-(1-(1-(3-(1-(2-(2,6-dioxopiperidin-3-yl)-1,3-dioxoisoindolin-4-yl)piperidin-4-yl)propanoyl)piperidin-4-yl)-1H-pyrazol-4-yl)pyrazine-2-carboxylate]	–	–	26.56%	18.52%
48 nM	14.79%	62.43%	Nc1ncc(-c2cnn(C3CCN(C(=O)COCCOCCNc4cccc5c4C(=O)N(C4CCC(=O)NC4=O)C5=O)CC3)c2)nc1C(=O)O[C@@H](C(=O)Nc1ccc(F)cc1)c1ccccc1 (stereo partly drawn) [TDH-104, (R)-2-((4-fluorophenyl)amino)-2-oxo-1-phenylethyl 3-amino-6-(1-(1-(2-(2-(2-((2-(2,6-dioxopiperidin-3-yl)-1,3-dioxoisoindolin-4-yl)amino)ethoxy)ethoxy)acetyl)piperidin-4-yl)-1H-pyrazol-4-yl)pyrazine-2-carboxylate]	25.6%	22.88%	–	–
